Reference: PubChem BioAssay (NCI)
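Briefly, cells in 96-well plates were exposed to five compound concentrations for 48 h, and endpoints were estimated by linear interpolation. Abbreviation: GI50, concentration required for 50% inhibition of growth. At the TGI there is no net growth.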

Assays:
Test in all cases: NCI tumour cell line growth inhibition, 48 h
A498 renal = tested on: A498 renal
CAKI-1 renal = tested on: CAKI-1 renal
RPMI-8226 leukemia = tested on: RPMI-8226 leukemia
SK-OV-3 ovarian = tested on: SK-OV-3 ovarian
786-0 renal = tested on: 786-0 renal
A549 NSCLC = tested on: A549 NSCLC
BT-549 breast = tested on: BT-549 breast
CCRF-CEM leukemia = tested on: CCRF-CEM leukemia
DU-145 prostate = tested on: DU-145 prostate
EKVX NSCLC = tested on: EKVX NSCLC
HCC-2998 colon = tested on: HCC-2998 colon
HCT-116 colon = tested on: HCT-116 colon
HCT-15 colon = tested on: HCT-15 colon
HL-60(TB) leukemia = tested on: HL-60(TB) leukemia
HOP-62 NSCLC = tested on: HOP-62 NSCLC
HOP-92 NSCLC = tested on: HOP-92 NSCLC
HS 578T breast = tested on: HS 578T breast
IGROV1 ovarian = tested on: IGROV1 ovarian
K-562 leukemia = tested on: K-562 leukemia
KM12 colon = tested on: KM12 colon
M14 melanoma = tested on: M14 melanoma
MCF7 breast = tested on: MCF7 breast
MDA-MB-231 breast = tested on: MDA-MB-231 breast
MDA-MB-435 = tested on: MDA-MB-435
MOLT-4 leukemia = tested on: MOLT-4 leukemia
NCI-H226 lung = tested on: NCI-H226 lung
NCI-H23 lung = tested on: NCI-H23 lung
NCI-H460 lung = tested on: NCI-H460 lung
NCI-H522 lung = tested on: NCI-H522 lung
NCI/ADR-RES ovarian = tested on: NCI/ADR-RES ovarian
OVCAR-3 ovarian = tested on: OVCAR-3 ovarian
OVCAR-5 ovarian = tested on: OVCAR-5 ovarian
OVCAR-8 ovarian = tested on: OVCAR-8 ovarian
PC-3 prostate = tested on: PC-3 prostate
SF-268 CNS = tested on: SF-268 CNS
SF-295 CNS = tested on: SF-295 CNS
SF-539 CNS = tested on: SF-539 CNS
SK-MEL-2 melanoma = tested on: SK-MEL-2 melanoma
SK-MEL-5 melanoma = tested on: SK-MEL-5 melanoma
SN12C renal = tested on: SN12C renal
SR leukemia = tested on: SR leukemia
SW-620 colon = tested on: SW-620 colon
TK-10 renal = tested on: TK-10 renal
UO-31 renal = tested on: UO-31 renal
ACHN renal = tested on: ACHN renal
COLO 205 colon = tested on: COLO 205 colon
HT29 colon = tested on: HT29 colon
LOX IMVI melanoma = tested on: LOX IMVI melanoma
RXF 393 renal = tested on: RXF 393 renal
SK-MEL-28 melanoma = tested on: SK-MEL-28 melanoma
SNB-19 CNS = tested on: SNB-19 CNS
T-47D breast = tested on: T-47D breast
U251 CNS = tested on: U251 CNS
UACC-257 melanoma = tested on: UACC-257 melanoma
UACC-62 melanoma = tested on: UACC-62 melanoma

## C=C(C)[C@@H]1CCC[C@]2(COS(=O)(=O)c3ccc(C)cc3)CC[C@]3(C)[C@@H](CC[C@@H]4[C@@]5(C)CCCNC(C)(C)[C@@H]5CC[C@]43C)[C@@H]12
A498 renal
  GI50: 1630 nM
  TGI: 3.14 µM
CAKI-1 renal
  GI50: 1.74 µM
  TGI: 3.15 µM
RPMI-8226 leukemia
  GI50: 1.86 µM
  TGI: 4.54 µM
SK-OV-3 ovarian
  GI50: 1870 nM
  TGI: 3.3 µM

## COc1cc(CNc2cnc3cc(N)cc(N)c3n2)cc(OC)c1
786-0 renal
  GI50: 15.4 µM
  TGI: 30 µM
A549 NSCLC
  GI50: 33 µM
  TGI: > 100 µM
BT-549 breast
  GI50: 20.2 µM
  TGI: 51.4 µM
CAKI-1 renal
  GI50: 24.8 µM
  TGI: 52.3 µM
CCRF-CEM leukemia
  GI50: 18.5 µM
  TGI: 52.3 µM
DU-145 prostate
  GI50: 41.4 µM
  TGI: > 100 µM
EKVX NSCLC
  GI50: 27.3 µM
  TGI: 67.4 µM
HCC-2998 colon
  GI50: 11.7 µM
  TGI: 25 µM
HCT-116 colon
  GI50: 16.3 µM
  TGI: 29.8 µM
HCT-15 colon
  GI50: 17.6 µM
  TGI: 38.1 µM
HL-60(TB) leukemia
  GI50: 32.9 µM
  TGI: > 100 µM
HOP-62 NSCLC
  GI50: 14.9 µM
  TGI: 44.1 µM
HOP-92 NSCLC
  GI50: 10.3 µM
  TGI: 25.9 µM
HS 578T breast
  GI50: 17 µM
  TGI: 52 µM
IGROV1 ovarian
  GI50: 33.6 µM
  TGI: > 100 µM
K-562 leukemia
  GI50: 11.3 µM
  TGI: 47 µM
KM12 colon
  GI50: 22.5 µM
  TGI: 71.8 µM
M14 melanoma
  GI50: 18.1 µM
  TGI: 33.8 µM
MCF7 breast
  GI50: 24.5 µM
  TGI: > 100 µM
MDA-MB-231 breast
  GI50: 5.58 µM
  TGI: 20.4 µM
MDA-MB-435
  GI50: 21.1 µM
  TGI: 39.5 µM
MOLT-4 leukemia
  GI50: 36.9 µM
  TGI: > 100 µM
NCI-H226 lung
  GI50: 17.4 µM
  TGI: 55.3 µM
NCI-H23 lung
  GI50: 17.3 µM
  TGI: 39.8 µM
NCI-H460 lung
  GI50: 54.4 µM
  TGI: > 100 µM
NCI-H522 lung
  GI50: 23.8 µM
  TGI: 78.2 µM
NCI/ADR-RES ovarian
  GI50: 34.3 µM
  TGI: > 100 µM
OVCAR-3 ovarian
  GI50: 19.6 µM
  TGI: 48.3 µM
OVCAR-5 ovarian
  GI50: 17.6 µM
  TGI: 48 µM
OVCAR-8 ovarian
  GI50: 22.6 µM
  TGI: 57.6 µM
PC-3 prostate
  GI50: 15.1 µM
  TGI: 35.2 µM
RPMI-8226 leukemia
  GI50: 6 µM
  TGI: 20 µM
SF-268 CNS
  GI50: 15.8 µM
  TGI: 37.7 µM
SF-295 CNS
  GI50: 26.5 µM
  TGI: 71.9 µM
SF-539 CNS
  GI50: 23.2 µM
  TGI: 46.9 µM
SK-MEL-2 melanoma
  GI50: 66.7 µM
  TGI: > 100 µM
SK-MEL-5 melanoma
  GI50: 18.7 µM
  TGI: 36.1 µM
SN12C renal
  GI50: 15.2 µM
  TGI: 33.3 µM
SR leukemia
  GI50: 18.8 µM
  TGI: > 100 µM
SW-620 colon
  GI50: 24.6 µM
  TGI: 64.2 µM
TK-10 renal
  GI50: 18.4 µM
  TGI: 57.6 µM
UO-31 renal
  GI50: 38.2 µM
  TGI: > 100 µM

## CCCCOC(=O)C1OC(O[C@H]2CCC3(C)C(CCC4(C)C3CC=C3C5CC(C)(C)CCC5(C(=O)O)CC[C@]34C)C2(C)C)C(OC2OC(CO)C(O)C(O)C2O)C(OC2OC(CO)C(O)C(O)C2O)C1O (stereo partly drawn)
786-0 renal
  GI50: 26.2 µM
  TGI: 70.9 µM
A549 NSCLC
  GI50: 34.1 µM
  TGI: > 100 µM
ACHN renal
  GI50: 20.6 µM
  TGI: 48.5 µM
BT-549 breast
  GI50: 21.5 µM
  TGI: 41.6 µM
CAKI-1 renal
  GI50: 33.4 µM
  TGI: 95.4 µM
COLO 205 colon
  GI50: 20.1 µM
  TGI: 52.3 µM
EKVX NSCLC
  GI50: 24.4 µM
  TGI: 49.7 µM
HCC-2998 colon
  GI50: 21.8 µM
  TGI: 38.1 µM
HCT-116 colon
  GI50: 20.6 µM
  TGI: 42.7 µM
HCT-15 colon
  GI50: 20.9 µM
  TGI: 51 µM
HL-60(TB) leukemia
  GI50: 22.3 µM
  TGI: 52 µM
HOP-62 NSCLC
  GI50: 19.4 µM
  TGI: 35.6 µM
HOP-92 NSCLC
  GI50: 33.2 µM
  TGI: > 100 µM
HS 578T breast
  GI50: 38 µM
  TGI: > 100 µM
HT29 colon
  GI50: 34.2 µM
  TGI: > 100 µM
IGROV1 ovarian
  GI50: > 100 µM
  TGI: > 100 µM
K-562 leukemia
  GI50: 23.2 µM
  TGI: > 100 µM
KM12 colon
  GI50: 30.8 µM
  TGI: 93.5 µM
LOX IMVI melanoma
  GI50: 18 µM
  TGI: 31.8 µM
M14 melanoma
  GI50: 17.8 µM
  TGI: 32.7 µM
MCF7 breast
  GI50: 38.4 µM
  TGI: > 100 µM
MDA-MB-231 breast
  GI50: 14.5 µM
  TGI: 32.2 µM
MDA-MB-435
  GI50: 30.6 µM
  TGI: 81 µM
MOLT-4 leukemia
  GI50: 7.77 µM
  TGI: 36.4 µM
NCI-H226 lung
  GI50: 29.2 µM
  TGI: 66.1 µM
NCI-H23 lung
  GI50: 22.8 µM
  TGI: 47.6 µM
NCI-H460 lung
  GI50: 33.3 µM
  TGI: > 100 µM
NCI-H522 lung
  GI50: 43.9 µM
  TGI: > 100 µM
NCI/ADR-RES ovarian
  GI50: 74 µM
  TGI: > 100 µM
OVCAR-3 ovarian
  GI50: > 100 µM
  TGI: > 100 µM
OVCAR-5 ovarian
  GI50: 28.8 µM
  TGI: 56.4 µM
OVCAR-8 ovarian
  GI50: 66.8 µM
  TGI: > 100 µM
PC-3 prostate
  GI50: 34.7 µM
  TGI: > 100 µM
RXF 393 renal
  GI50: 58.5 µM
  TGI: > 100 µM
SF-268 CNS
  GI50: 27.7 µM
  TGI: 84.4 µM
SF-295 CNS
  GI50: 26 µM
  TGI: 71 µM
SK-MEL-2 melanoma
  GI50: 40.9 µM
  TGI: > 100 µM
SK-MEL-28 melanoma
  GI50: 26.7 µM
  TGI: 52.2 µM
SK-MEL-5 melanoma
  GI50: 33.1 µM
  TGI: > 100 µM
SN12C renal
  GI50: 21.8 µM
  TGI: 40 µM
SNB-19 CNS
  GI50: 22.5 µM
  TGI: 53.6 µM
SW-620 colon
  GI50: 36.6 µM
  TGI: > 100 µM
T-47D breast
  GI50: 48 µM
  TGI: > 100 µM
TK-10 renal
  GI50: 33.3 µM
  TGI: > 100 µM
U251 CNS
  GI50: 17.9 µM
  TGI: 31.8 µM
UACC-257 melanoma
  GI50: 26.2 µM
  TGI: 62.2 µM
UACC-62 melanoma
  GI50: 20.9 µM
  TGI: 36.1 µM
UO-31 renal
  GI50: 49.2 µM
  TGI: > 100 µM
